Laboratory results published in patent US12686676B2, “Compound, endothelin-A receptor antagonist, and pharmaceutical composition” (Alchemedicine, Inc., priority 2021, dated 2026).

Key:
[1] = biological target: T1, human endothelin A receptor (Homo sapiens, UniProt P25101); test: Endothelin A receptor inhibitory effect (aequorin light emission, endothelin at EC80); assay type: cell-based; conditions: for IC50: CHO-K1-mt aequorin cells expressing human endothelin A receptor, endothelin at EC80, read-out: ETA receptor inhibitory effect; for ETA selectivity (ETB/ETA): ETB IC50 value/ETA IC50 value
T1 construct: expressed in transfected cells; host or cells: CHO-K1-mt aequorin cells
T1 sequence (P25101 21-427): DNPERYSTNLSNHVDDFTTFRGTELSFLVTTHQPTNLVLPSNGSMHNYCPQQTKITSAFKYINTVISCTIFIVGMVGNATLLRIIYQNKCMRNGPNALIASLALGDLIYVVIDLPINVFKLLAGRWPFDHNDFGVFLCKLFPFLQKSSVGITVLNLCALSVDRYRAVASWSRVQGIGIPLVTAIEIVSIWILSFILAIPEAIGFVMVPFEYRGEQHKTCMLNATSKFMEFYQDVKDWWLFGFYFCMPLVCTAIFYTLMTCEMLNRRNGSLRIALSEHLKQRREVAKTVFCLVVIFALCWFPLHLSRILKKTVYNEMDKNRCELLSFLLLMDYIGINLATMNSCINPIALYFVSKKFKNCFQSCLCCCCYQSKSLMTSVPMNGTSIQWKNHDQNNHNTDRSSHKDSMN
Method: The inhibitory effect on an endothelin A receptor was studied by the following method.
(§1) CHO-K1-mt aequorin cells forced to express a human endothelin A receptor (Accession Number NP_001948.1) were cultured in an antibiotic-free medium for 18 hours, then treated with PBS-EDTA (5 mM EDTA), centrifuged (2 min, 405×g, room temperature), and then suspended in an assay buffer (DMEM/HAM's F12 with HEPES+0.1% BSA protease free).
(§2) 1×10^6 cells/mL of the cells were incubated at room temperature for 4 hours in the presence of coelenterazine h (Molecular Probes, Inc.) (final concentration: 5 µM). Agonistic reaction based on endothelin was confirmed to determine an endothelin concentration corresponding to EC80.
(§3) Subsequently, 50 µL (10000 cells/well) of the cell suspension treated with coelenterazine h and 50 µL of an assay buffer containing a test substance (final concentration: 0.5% in DMSO) were added to each well of a 96-well plate. 15 minutes later, endothelin was added such that its final concentration was an EC80 concentration. Receptor activity was measured as the quantity of light emission in FDSS6000 (Hamamatsu Photonics K.K.). IC50 values were calculated using XLfit (ID Business Solutions Ltd. (IDBS)).

[2] = biological target: T2, human endothelin B receptor (Homo sapiens, UniProt P24530); test: Endothelin B receptor inhibitory effect (aequorin light emission, endothelin at EC80); assay type: cell-based; conditions: CHO-K1-mt aequorin cells expressing human endothelin B receptor; endothelin at EC80; read-out: ETB receptor inhibitory effect
T2 construct: expressed in transfected cells; host or cells: CHO-K1-mt aequorin cells
T2 sequence (P24530 27-442): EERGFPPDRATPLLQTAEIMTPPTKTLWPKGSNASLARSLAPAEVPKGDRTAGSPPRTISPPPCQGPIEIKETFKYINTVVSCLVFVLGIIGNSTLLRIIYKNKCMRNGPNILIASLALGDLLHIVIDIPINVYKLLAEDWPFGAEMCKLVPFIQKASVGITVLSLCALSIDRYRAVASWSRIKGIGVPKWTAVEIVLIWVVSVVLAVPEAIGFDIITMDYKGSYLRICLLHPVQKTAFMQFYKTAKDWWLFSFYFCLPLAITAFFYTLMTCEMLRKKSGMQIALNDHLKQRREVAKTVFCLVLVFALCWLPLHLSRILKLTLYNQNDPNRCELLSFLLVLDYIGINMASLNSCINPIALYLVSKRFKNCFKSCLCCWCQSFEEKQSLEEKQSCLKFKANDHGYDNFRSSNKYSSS
Method: The inhibitory effect on an endothelin B receptor was studied by the following method.
as §1, with “endothelin B” for “endothelin A”, “Number NP_000106.1)” for “Number NP_001948.1)”
as §2
as §3, with “K.K.).” for “K.K.). IC50 values were calculated using XLfit (ID Business Solutions Ltd. (IDBS)).”

[3] = in vivo; cited from earlier work
ETA receptor = biological target: T3, ETA receptor (Homo sapiens, UniProt P25101); conditions: cited from earlier work
T3 sequence (P25101 21-427): T1 sequence (P25101 21-427)

CYP2C9 = biological target: T4, CYP2C9 (Homo sapiens, UniProt P11712); test: CYP2C9 inhibitory effect (liver microsome fraction, diclofenac substrate); assay type: in vitro ADME; conditions: liver microsome fraction 0.5 mg/mL, diclofenac 2.5 μM
T4 construct: A frozen liver microsome fraction was thawed on ice; from tissue; host or cells: liver microsome fraction
T4 sequence (P11712 whole entry): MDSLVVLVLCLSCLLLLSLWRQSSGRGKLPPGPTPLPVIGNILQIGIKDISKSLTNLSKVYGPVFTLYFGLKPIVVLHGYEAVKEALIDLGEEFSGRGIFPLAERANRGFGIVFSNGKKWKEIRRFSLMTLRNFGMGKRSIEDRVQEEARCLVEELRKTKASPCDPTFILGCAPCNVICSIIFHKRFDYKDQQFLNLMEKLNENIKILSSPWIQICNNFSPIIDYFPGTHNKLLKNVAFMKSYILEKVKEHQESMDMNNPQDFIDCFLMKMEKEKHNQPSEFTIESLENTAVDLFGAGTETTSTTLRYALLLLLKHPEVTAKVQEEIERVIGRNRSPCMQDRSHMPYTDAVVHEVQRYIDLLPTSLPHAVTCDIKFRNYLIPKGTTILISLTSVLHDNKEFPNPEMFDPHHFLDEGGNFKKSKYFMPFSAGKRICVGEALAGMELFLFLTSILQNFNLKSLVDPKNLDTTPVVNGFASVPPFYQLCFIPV
Method: The inhibitory effect on CYP2C9 was evaluated by the following method. • (1) A frozen liver microsome fraction was thawed on ice and diluted with a potassium phosphate buffer (PPB) to a final concentration of 0.5 mg/mL. • (2) A substrate for evaluation (diclofenac: D6899 from Sigma-Aldrich Co. LLC) was added thereto such that its final concentration was 2.5 μM. • (3) The mixture was slowly mixed and incubated at 37±1° C. for 5 minutes to prepare a reaction solution. • (4) 801 μL of the reaction solution was dispensed to each tube, and an evaluation compound serially diluted with 0.9 μL of DMSO was added thereto such that its final concentration was 9.1 to 20000 nM (⅓ dilutions with 8 concentrations). In this context, 0.9 μL of DMSO was added to a negative control group, and 0.9 μL of sulfaphenazole (S0758 from Sigma-Aldrich Co. LLC) adjusted to a final concentration of 1 μM with DMSO was added to a positive control group. • (5) After mixing, a 270 μL aliquot was transferred to each of two fresh tubes and incubated in a shaking water bath at 37±1° C. for 5 minutes. • (6) Reaction was started by the addition of 30 μL of 10 mM NADPH, and the tubes were incubated at 37° C.±1° C. for 10 minutes. • (7) The tubes were taken out of the shaking water bath, and the reaction was terminated by the addition of 300 μL of a reaction stop solution. After mixing, the tubes were centrifuged at 1021×g at 4° C. for 20 minutes. • (8) The amount of the substrate for evaluation metabolized was determined by LC-MS/MS to calculate the rate of inhibition at each concentration of the evaluation compound. • (9) IC50 values were calculated using GraphPad Prism5. A sample having an IC50 value of 1 μM or lower was given “++”; a sample having an IC50 value in the range of higher than 1 μM and 10 μM or lower was given “+”; and a sample having an IC50 value of higher than 10 μM was given “−”.

[4] = pulmonary hypertension associated with connective tissue disease; cited from earlier work
[5] = in vivo; cited from earlier work; remark: listed apart in the source

IC50 [1]	IC50 [2]	IC50 (CYP2C9)	Compound	ETA selectivity (ETB/ETA) [1]	Effect on endothelin concentrations in blood [3]	Selective inhibition of ETA receptor in contrast to ETB receptor (ETA receptor)	Drug efficacy in clinical trials [4]	Peripheral edema [5]
1 to 10 nM	> 5000 nM	–	Cc1cc2c(cc1C#Cc1ncccc1S(=O)(=O)Nc1noc(C)c1C)COC2C (centres unmarked) [Example 11, 2-((1,6-Dimethyl-1,3-dihydroisobenzofuran-5-yl)ethynyl)-N-(4,5-dimethylisoxazol-3-yl)pyridine-3-sulfonamide]	–	–	–	–	–
≤ 1 nM	> 5000 nM	–	Cc1cc2c(cc1C#Cc1ncccc1S(=O)(=O)Nc1noc(C)c1C)C(C)OC2 (centres unmarked) [Example 2, 2-((3,6-Dimethyl-1,3-dihydroisobenzofuran-5-yl)ethynyl)-N-(4,5-dimethylisoxazol-3-yl)pyridine-3-sulfonamide]	++ (ETB IC50 value/ETA IC50 value of higher than 5000)	–	–	–	–
1 to 10 nM	> 5000 nM	≤ 1000 nM	Cc1cc2c(cc1CC(=O)c1sccc1S(=O)(=O)Nc1onc(C)c1Cl)OCO2 [Comparative Example 1, sitaxentan, reference compound]	++ (ETB IC50 value/ETA IC50 value of higher than 5000)	not increase endothelin concentrations in blood	selectively inhibit the ETA receptor	significant drug efficacy	not cause peripheral edema
≤ 1 nM	> 5000 nM	≤ 1000 nM	Cc1cc2c(cc1CC(=O)c1sccc1S(=O)(=O)Nc1onc(C)c1Cl)COC2 [Comparative Example 2, reference compound]	++ (ETB IC50 value/ETA IC50 value of higher than 5000)	–	–	–	–
